These are literature values, as cited in patent publication US20030203963A1, “Antimicrobial agent” (priority 2001, published 2003).

Conditions in all cases: cited from earlier work
In series [1] the test system is yeasts and moulds as well as catalase-positive bacteria.
Series [2] deals with aerobic, Gram-negative bacteria.
The subject of series [3] is Gram-positive bacteria, yeasts, and moulds.
In series [4] the test system is Salmonella.
For series [5], the system named is bacteria.

In the case of `C/C=C/C=C/C(=O)O` [Sorbic Acid], in series [1], the Effective concentration is recorded as 500-3000 ppm. `O=S=O` [Sulphur Dioxide]: the “Effective concentrations for inhibition” value in series [2] was 250-500 ppm. For the same compound, the Effective concentrations in series [3] is reported as 800-2000 ppm. In the case of `O=NO` [nitrite], the “Concentration at which Salmonella is inhibited” value in series [4] (meat products) was > 1,000 ppm.

As for Nisin, in series [4] (in food), the “Inhibition of Salmonella” value is “unable to inhibit”. For Propionic Acid and Propionate, the “Concentrations necessary for inhibition of bacteria” value in series [5] is > 16000 ppm.
